Source: US12472206B2, “Pharmaceutical composition containing cerium compound as active ingredient” (priority 2020, dated 2025)
Entries after “also recorded” stand apart in the source; their conditions may differ.

What was measured:
[1] = system: adenine nephropathy model rats; test: Animal experiment (2) (Example 7): adenine nephropathy model rats fed with cerium-containing feed, blood analysis; type: in vivo
Description: Adenine nephropathy model rats were fed with a dispersion (cerium oxide dispersion) that contains cerium(III) ion as a cerium compound containing trivalent cerium, and cerium oxide.
• Rat: Slc:Wistar rat (male) delivered at 12 weeks of age (Japan SLC, Inc.) • Powder feed: AIN-93G powder feed (Funabashi Farm Co., Ltd.) • Feed for laboratory animal: Labo MR Stock (Nosan Corporation) • Adenine: (Tokyo Chemical Industry Co., Ltd.) • Cerium oxide dispersion: Cerium oxide dispersion prepared in [Preparation of Cerium Oxide Dispersion] (aqueous dispersion of cerium oxide with 10.0% by mass cerium oxide, mole ratio of cerium oxide:cerium(III)=9:1 • Cerium(III) chloride: cerium(III) chloride heptahydrate (Nikki Corporation) • Water or hot water: water passed through a water purifier, and boiled in a pot • Mixer for feed preparation: Compact Kitchen Machine MUM4415JP (Bosch GmbH) • Manual sausage maker: sausage machine (COM4SPORT) • Wing blood collection needle for animal experiment: CL-4597 (CLEA Japan, Inc.) [Preparation of Cerium Oxide Dispersion]
A special feed was prepared by modifying step (ii) for preparing the feed for normal group, as described below. […] Approximately 100 mL of hot water was then added evenly.
(§1) A special feed was prepared by modifying steps (i) and (ii) for (2) Feed for Adenine Group, as described below. (i) (Ade+Dispersion (A)): Weighed was 246.1 g of the powder feed, which was then stirred with a kitchen machine. (ii) (Ade+Dispersion (A)): While keeping the feed under stirring, 0.625 g of adenine was added in small portions, the content was stirred with the kitchen machine for 3 minutes, the feed adhered on the wall surface was scraped off, and the content was stirred again for 3 minutes. Next, while keeping the feed under stirring, 32.7 g of cerium oxide dispersion was added in small portions, the content was stirred with the kitchen machine for 3 minutes, the feed adhered on the wall surface was scraped off, and the content was stirred again for 3 minutes. Approximately 70 mL of hot water was then added evenly.
as §1, with “(ii)” for “A special feed was prepared by modifying steps (i) and (ii) for (2) Feed for Adenine Group, as described below. (i) (Ade+Dispersion (A)): Weighed was 246.1 g of the powder feed, which was then stirred with a kitchen machine. (ii)”, “(B)):” for “(A)):”, “98.2” for “32.7”, “12” for “70”
(1) Rats were weighed, and classified into four groups.
FIGS. 12 to 15 illustrate graphs plotting on the ordinates test values of serum creatinine (CRE), blood urea nitrogen (BUN), serum phosphorus (IP), or alanine aminotransferase (ALT) of the blood samples collected at the time of the dissection, and plotting on the abscissae total molar amount of cerium per 100 g of feed.
The effect of cerium(III) chloride was examined with use of the following feeds (4-1) to (4-3), in place of the (3-1) Feed for adenine+cerium oxide dispersion (A) group, and the (3-2) Feed for adenine+cerium oxide dispersion (B) group described in Preparation of Feeds according to Example 7-1. […]

[2] = Phosphorus adsorption experiment, Example 2-3 (particle 1 vs lanthanum carbonate); type: binding; details: one hour
Experimental: Three mmol/L aqueous phosphoric acid solutions with pH 2.5 and pH 7.0 were prepared. The pH was adjusted with Bis-Tris HCl buffer solution and glycine-HCl buffer solution (phosphoric acid, sodium chloride, and glycine from FUJIFILM Wako Pure Chemical Corporation; Bis-Tris from Dojindo Laboratories).
A freely selectable amount of particle 1 was added to each of the aqueous solutions.
Each of these dispersions was kept stirred at 38° C. for one hour in a thermostatic chamber.
Also, a freely selectable amount of a commercially available lanthanum carbonate reagent (from Nikki Corporation) was added in the same way, and each dispersion was kept stirred at 38° C. for one hour in a thermostatic chamber.
Each solution was then centrifuged (10,000×g, 5 min) for solid-liquid separation, and the supernatant was collected.
Phosphoric acid remained in the collected supernatant was evaluated by colorimetry, with use of a commercially available phosphoric acid detection reagent (Trade name: PiBlue Phosphate Assay Kit; POPB-500) that contains molybdenum blue and malachite green.
The reciprocal of the mass of the particle required to entirely adsorb 3 mmol of phosphoric acid was defined as adsorptivity to phosphorus, and was illustrated in FIG. 6.

[3] = system: 5/6 nephrectomized model rats; details: 5/6 nephrectomized rats, in feed
Experimental: Slc:Wistar rat, 5/6 nephrectomized
(1) The 5/6 nephrectomized model rats were weighed, and classified into three groups.
(2) Each group was acclimatized with MR stock feed, under ad libitum feeding and ad libitum water drinking. The feeding cage was conditioned at room temperature 22±2° C., under illumination 12 hours a day.
(3) The animals were then bred with the prepared special feed under ad libitum feeding and ad libitum water drinking. The feeding cage was conditioned similarly to the acclimatization period, at room temperature 22±2° C., under illumination 12 hours a day.
(4) On Days 0, 7, 14, 21, and 28, rats were bred in metabolic cages for 24 hours. The animals were fed with Labo MR stock on Day 0, and with the special feed on days thereafter, during which the amounts of feed consumption, water consumption, urine and feces were measured, and the urine and feces were sampled.
(5) The animals were taken out of the metabolic cage and weighed, followed by blood collection with a winged needle. Approximately 400 μL of blood was collected, incubated at room temperature for one hour, and then centrifuged (1,700×g, 20 min) to obtain serum.
(6) On the final Day 28, the animals were fasted throughout the day, and then dissected. […] The collected blood was centrifuged (1,700×g, 20 min) to obtain serum. Liver, kidney, spleen, small intestine, and stomach of the rats that were exsanguinated to death were sampled. The small intestine and stomach were dissected, removed contents, and rinsed twice with PBS. The above sequence of procedures was repeated three times to assign six animals to each group. […]
The above four items were measured with use of Hitachi 7180 automatic analyzer.
ALT was measured only for blood samples collected on the last day.

[4] = adenine nephropathy rats, in feed, blood collected at dissection

Which results are given for `O.O.O.O.O.O.O.[Ce+3].[Cl-].[Cl-].[Cl-]` [cerium chloride, cerium(III) chloride heptahydrate]?
effects on CRE, BUN and IP relative to the cerium oxide dispersion, per molar amount of cerium ([1]; adenine group normalized at 100): 4 to 9 times; alanine aminotransferase (ALT) [1, 4]: equivalent to that in the normal group; also recorded: equivalent to the level of the normal group; blood urea nitrogen (BUN) [1, 4]: declines depending on the cerium chloride content (mol) in 100 g of feed; also recorded: decrease as the cerium chloride content in the feed increased; serum creatinine (CRE) [1, 4]: declines depending on the cerium chloride content (mol) in 100 g of feed; also recorded: decrease as the cerium chloride content in the feed increased; serum phosphorus (IP) [1, 4]: declines depending on the cerium chloride content (mol) in 100 g of feed; also recorded: decrease as the cerium chloride content in the feed increased

With `O=C([O-])[O-].O=C([O-])[O-].O=C([O-])[O-].[La+3].[La+3]` [lanthanum carbonate] as the molecule, how does the “mass of the particle required to entirely adsorb 3 mmol of phosphoric acid” value ([2]; pH 2.5, 38° C.) read?
The value was 1.15 g.

What about the “mass of the particle required to entirely adsorb 3 mmol of phosphoric acid” value ([2]; pH 7.0, 38° C.) of the same molecule?
Its value is 5.95 g.

What about the “blood urea nitrogen (BUN)” value ([3]; Days 0-28) of the same molecule?
Its value is “slightly increase as compared with the cerium oxide-added groups”.

And the “serum creatinine (CRE)” value ([3]; Days 0-28)?
The value was “slightly increase as compared with the cerium oxide-added groups”.

And the “serum ALT (GPT) level” value ([3]; blood of the last day)?
Its value is “distinctively increased as compared with those of the non-added group”.
